Patent publication US20100093642A1, “NOVEL POLYPEPTIDES” (priority 2006, published 2010)
In brackets after ≈: the same amount, converted by molar mass. Where two headings read alike, the source gives them in different places. Residues, ends and D or L forms follow the SMILES beside them. No end group written: not given here.

How the values were obtained:
[1] = system: human breast malignant carcinoma cell line MCF-7; format: cell-based; conditions: 24 hours, maximum 200 μg/ml
Procedure: (§1) The cytotoxic effects of the peptides on different human tumour cells were measured using the MTT colorimetric assay (Mosmann, 1983). […] Dissolved MIT is converted to an insoluble purple formazan by cleavage of the tetrazolium ring by dehydrogenase enzymes. This water insoluble formazan can be solubilized using isopropanol or other solvents and the dissolved material is measured spectrophotometrically. The absorbance was measured as a function of concentration of converted dye. The conversion of the soluble dye to the insoluble purple formazan is utilized in assays for measurement of cell proliferation. […] We used this assay to measure the degree of cell death caused by the peptides. MCF-7 was maintained in EMEM, A2058 in DMEM and […]-29 in RPMI-1640 medium supplemented with 10% heat inactivated […] and 1% L-glutamine-L-alanine in a humidified atmosphere of 5% CO2 at 37° C. The human embryonic fibroblast cell line, MRC-5 (which is normal fibroblasts), was cultured as a monolayer in MEM medium, under the same conditions as described for the tumour cell lines. Cells to be used in the assay were grown to a minimum of 75% confluency, trypsinated and split to single cell suspension, counted and centrifuged at 1500 rpm for 10 min. The cell pellet was resuspended to a concentration of 2×10^5 cells/ml (HT-29) or 1×10^5 (MRC-5, MCF7 and A2058) in DMEM without FBS and L-glutamine-L-alanine (assay-medium). All cell lines were routinely tested for mycoplasma infection using a PCR-based mycoplasma detection kit (MycoSensor PCR Assay Kit, Stratagene), following the supplier's instructions. All cell lines were mycoplasma free. The cytotoxicity was measured using the MTT method (Mosmann, 1983), with minor modifications. Different human tumour cells (1-2×10^5) were applied in 96-well culture plates in a volume of 100 μl DMEM medium and incubated at 37° C. for 24 hours. The medium was removed and the cells were treated with 100 μl of peptide solution (concentrations ranging from 0 to 200 μg/ml), diluted in a) RPMI-1640 medium supplemented with 5% heat inactivated FBS, or b) RPMI-1640 medium without FBS. The plates were incubated at 37° C. for 24 hours. Cells treated with Triton X-100 (1%) was used as positive control (100% killing) whereas cells plus medium only were used as negative control. […] A volume of 70 μl of the supernatant was then removed and […] (0.04 M HCl in isopropanol) added to each well. The plate was placed on a shaker for 1 hour at room temperature and read spectrophotometrically at 590 nm in a microtiter plate reader (DTX880 Multimode Detector, Beckman Coulter).

[2] = system: human colorectal adenocarcinoma cell line HT-29; format: cell-based; conditions: 24 hours, maximum 200 μg/ml
Procedure: as §1

[3] = system: human embryonic lung fibroblast cell line MRC-5; format: cell-based; conditions: normal fibroblasts, 24 hours, maximum 200 μg/ml
Procedure: as §1

[4] = system: human skin malignant melanoma cell line A2058; format: cell-based; conditions: 24 hours, maximum 200 μg/ml
Procedure: as §1

[5] = system: E. coli (ATCC 25922); format: cell-based, Escherichia coli
Procedure: (§2) The antibacterial activities of the different peptides were determined by continuous monitoring of bacterial growth with a Bioscreen C microbiology reader (Labsystems Oy, Helsinki, Finland). The test was performed in 100-well flat-bottomed honeycomb plates, in which 50 μl of test fractions were incubated with 50 μl of a suspension of an actively growing culture of bacteria diluted in Mueller Hinton medium to a starting concentration of 3×10^4 cells per ml. […] [NT] 13032) and S. aureus (ATCC 9144), were chosen as test bacteria. […] Polymyxin B (Sigma, St.

[6] = system: Pseudomonas aeruginosa; format: cell-based
Procedure: as §2

[7] = system: S. aureus (ATCC 9144); format: cell-based, Staphylococcus aureus; conditions: ATCC 9144
Procedure: as §2

[8] = system: Botrytis cinerea 101; conditions: 48 h
Procedure: (§3) The various derivates of P17 (brominated and non-brominated) were tested for their ability to inhibit fungal growth of the yeast strains Saccaharomyces cerevisiae sp, Candida albicans (ATCC 10231) and Rodotorula sp., and the filamentous strains Botrytis cinerea 101, Penicillium rogveforti, and Fusarium sp. All strains, except C. albicans, were a gift from Prof. A. Tronsmo (The Norwegian University of Life Sciences, Ås, Norway). The fungi were cultivated on potato dextrose agar, supplemented with 2% glucose, at room temperature. Before antifungal testing, the fungi were dissolved in potato dextrose broth (Difco) at half-strength. Cell concentration was determined and adjusted after counting in a Bürker chamber. The filamentous fungi were filtered through a piece of cotton before counting. An aliquot of 50 μl of fungal spores (final concentration 2×10^5 spores per ml) were inoculated in microtiter plates (96 wells) along with 50 μl peptide solution. Peptides, dissolved in distilled water, were tested at final concentrations (two-fold dilutions) ranging from 50 μM to 0.1 μM. Cultures were grown in the dark (without shaking) and with a moist chamber at 25° C. (37° C. for C. albicans). Growth inhibition was determined microscopically after 48 h of incubation. MIC was determined as the lowest concentration of peptide resulting in 50% inhibition of visible growth.

[9] = system: Candida albicans (ATCC 10231); conditions: ATCC 10231, 48 h
Procedure: as §3

[10] = system: Saccharomyces cerevisiae; conditions: 48 h
Procedure: as §3

[11] = system: Salmonella enterica serovar typhimurium (ATCC 14028); experiment: Bacterial cell viability, lux luminescence and OD600, with or without LPS; format: cell-based; conditions: co-incubation with 2.5 μM Aeromonas salmonicida LPS
From the text: To evaluate the effect of antimicrobial peptides on the viability of bacteria in a fast and reliable manner we used the lux CDABE operon from Photorhabdus luminescens as a reporter system in gram negative test bacteria and the modified luxABCDE operon in S. aureus (Vesterlund et al. 2004). Bacterial bioluminescence is directly dependent on metabolic activity, since reduction equivalents are needed to drive light emission. Any form of interruption of bacterial cell integrity or metabolism will therefore be detected as a reduction in light emission.
For the assay we used S. aureus (RN4220), E. coli K-12 and Salmonella enterica serovar typhimurium (ATCC 14028) transformed with the respective lux-operon containing plasmids (Vesterlund et al. 2004).
For each experiment a fresh colony was picked from Luria-Bertani plates supplemented with 10 μg/ml of erythromycin in case of S. aureus and with 100 μg/ml of ampicillin in case of E. coli and S. enterica serovar Typhimurium. Each colony was suspended in 5 ml of Müller-Hinton medium with appropriate antibiotics. The culture was incubated over night at 37° C. in a shaking incubator. The next morning 0.5 ml of this culture was transferred to 30 ml fresh MH medium in an Erlenmeyer-flask supplemented with the respective antibiotic. The flask was incubated (200 rpm shaking; 37° C.) until an OD600 of 0.5-0.8 was reached. The culture was then diluted to an OD600 of about 0.02-0.03 before transfer to the 96 well opaque plates with optical bottom (Packard ViewPlate) used for the assay.
The synthesized peptides were dissolved in water and aliquots frozen at −18° C. until use. Twofold dilutions of test peptides (final concentrations ranging from 0.31 to 80 μM) were directly prepared in 96 well microtiter plates in a volume of 10 μl in water. 90 μl is of indicator bacteria in MH medium were added directly to the prepared and pre-warmed (30 minutes at 37° C.) plate before starting the measurement in a Victor multiplate reader (Perkin Elmer) at 37° C. Both OD600 and luminescence in counts per second (cps) were followed over 5 hours in measuring intervals of 5 minutes. The plates where shaken before each measurement (20 sec.; 5 mm orbital shaking; 10 sec waiting). The growth curves and light emission curves were drawn and evaluated to determine the MIC for each indicator strain. The MIC was defined as the concentration of test compound causing more than 50% reduction in bioluminescence (cps) or optical density (OD600) after 5 hours, compared to the growth control. Cecropin P1 was used as positive control. The results (table 14a-b) confirm the results obtained in example 2, showing a pronounced antibacterial effect of the longest peptide fragments. […] The partial peptides P17 HC (1-20), both bromated and unbromated, inhibit growth only in higher concentrations.
A second plate with an otherwise similar setup (as described for the luminescence assay in example 3) was prepared, but with addition of Aeromonas salmonicida LPS to the peptide dilutions before pre-warming. The LPS end concentration in each well was approximately 2.5 μM.

[12] = system: C. glutamicum (ATCC 13032); format: cell-based, Corynebacterium glutamicum
Procedure: as §2

[13] = RPMI-1640 medium containing 5% FBS

Compound	Antitumoral activity IC50, MCF-7 [1, 13]	Antitumoral activity IC50, MCF-7 ([1]; serum-free RPMI-1640 medium)	Antitumoral activity IC50, HT-29 [2, 13]	Antitumoral activity IC50, HT-29 ([2]; serum-free RPMI-1640 medium)	IC50, MRC-5 [3, 13]	IC50, MRC-5 ([3]; serum-free RPMI-1640 medium)	Antitumoral activity IC50, A2058 [4, 13]	Antitumoral activity IC50, A2058 ([4]; serum-free RPMI-1640 medium)	Minimal inhibitory concentration, E. coli [5] [µM]	Minimal inhibitory concentration, P. aeruginosa [6] [µM]	Minimal inhibitory concentration, S. aureus [7] [µM]	Minimal inhibitory concentration (MIC), Botrytis cinerea [8] [µM]	Minimal inhibitory concentration (MIC), Candida albicans [9] [µM]	Minimal inhibitory concentration (MIC), Saccharomyces cerevisiae [10] [µM]	MIC, more than 50% reduction in optical density, S. enterica, P + LPS ([11]; OD600, 5 hours) [µM]	MIC, more than 50% reduction in luminescence, S. enterica, P + LPS ([11]; luminescence (cps), 5 hours) [µM]	Minimal inhibitory concentration, C. glutamicum [12] [µM]
NC(Cc1c[nH]c2ccc(Br)cc12)C(=O)O [5-D/L-Br-Trp, 5-Bromo-D/L-tryptophan, reference compound]	— (The symbol “—” denotes no activity within the concentration range tested.)	— (The symbol “—” denotes no activity within the concentration range tested.)	— (The symbol “—” denotes no activity within the concentration range tested.)	* (The symbol “*” denotes 30-50% killing at the highest concentration tested.)	* (The symbol “*” denotes 30-50% killing at the highest concentration tested.)	* (The symbol “*” denotes 30-50% killing at the highest concentration tested.)	— (The symbol “—” denotes no activity within the concentration range tested.)	— (The symbol “—” denotes no activity within the concentration range tested.)	–	–	–	–	–	–	–	–	–
NCCCC[C@H](NC(=O)[C@H](CCCCN)NC(=O)[C@H](Cc1ccccc1)NC(=O)C(Cc1c[nH]c2ccc(Br)cc12)NC(=O)CN)C(=O)O (stereo partly shown) [P17 HC-Br (1-5)] (HELM PEPTIDE1{G.[O=C(C(Cc1c[nH]c2ccc(Br)cc12)N[*:1])[*:2]].F.K.K}$$$$V2.0; N-terminus and C-terminus assumed)	–	–	–	–	–	–	–	–	25 (≈ 18.6 µg/mL)	>50	>100	>100	>100	>100	–	–	–
CC(C)[C@H](NC(=O)[C@H](CCCCN)NC(=O)[C@H](Cc1c[nH]cn1)NC(=O)[C@H](Cc1ccccc1)NC(=O)[C@@H](NC(=O)[C@H](CCCCN)NC(=O)[C@H](CCCCN)NC(=O)[C@H](Cc1ccccc1)NC(=O)C(Cc1c[nH]c2ccc(Br)cc12)NC(=O)CN)[C@@H](C)O)C(=O)O (stereo partly shown) [P17 HC-Br (1-10)] (HELM PEPTIDE1{G.[O=C(C(Cc1c[nH]c2ccc(Br)cc12)N[*:1])[*:2]].F.K.K.T.F.H.K.V}$$$$V2.0; N-terminus and C-terminus assumed)	–	–	–	–	–	–	–	–	25 (≈ 33.9 µg/mL)	>50	>100	50 (≈ 67.8 µg/mL)	25 (≈ 33.9 µg/mL)	25 (≈ 33.9 µg/mL)	40	20	–
GQRGCSALGF [P17 HC (21-30)]	–	–	–	–	–	–	–	–	>100	>100	>100	>100	>100	>100	–	–	>100
GWFKK [P17 HC (1-5)]	–	–	–	–	–	–	–	–	>100	>100	>100	>100	>100	>100	–	–	>100
GWFKKTFHKV [P17 HC (1-10)]	–	–	–	–	–	–	–	–	100	100	>100	100	25	25	–	–	12.5
